Assay results: ChEMBL document CHEMBL4480381, “Origin and bioactivities of thiosulfinated FK228” (Medchemcomm, 2019)

Biological target: Histone deacetylase 4 (Homo sapiens, UniProt P56524)
Assay: Inhibition of human recombinant C-terminal GST-tagged HDAC4 (101 to 1084 residues) expressed in baculovirus infected Sf9 insect cells after 1 hr by HDAC-Glo1/2 luminescent assay

Histone deacetylase 4, sequence (P56524 whole entry, the tested form may be a part): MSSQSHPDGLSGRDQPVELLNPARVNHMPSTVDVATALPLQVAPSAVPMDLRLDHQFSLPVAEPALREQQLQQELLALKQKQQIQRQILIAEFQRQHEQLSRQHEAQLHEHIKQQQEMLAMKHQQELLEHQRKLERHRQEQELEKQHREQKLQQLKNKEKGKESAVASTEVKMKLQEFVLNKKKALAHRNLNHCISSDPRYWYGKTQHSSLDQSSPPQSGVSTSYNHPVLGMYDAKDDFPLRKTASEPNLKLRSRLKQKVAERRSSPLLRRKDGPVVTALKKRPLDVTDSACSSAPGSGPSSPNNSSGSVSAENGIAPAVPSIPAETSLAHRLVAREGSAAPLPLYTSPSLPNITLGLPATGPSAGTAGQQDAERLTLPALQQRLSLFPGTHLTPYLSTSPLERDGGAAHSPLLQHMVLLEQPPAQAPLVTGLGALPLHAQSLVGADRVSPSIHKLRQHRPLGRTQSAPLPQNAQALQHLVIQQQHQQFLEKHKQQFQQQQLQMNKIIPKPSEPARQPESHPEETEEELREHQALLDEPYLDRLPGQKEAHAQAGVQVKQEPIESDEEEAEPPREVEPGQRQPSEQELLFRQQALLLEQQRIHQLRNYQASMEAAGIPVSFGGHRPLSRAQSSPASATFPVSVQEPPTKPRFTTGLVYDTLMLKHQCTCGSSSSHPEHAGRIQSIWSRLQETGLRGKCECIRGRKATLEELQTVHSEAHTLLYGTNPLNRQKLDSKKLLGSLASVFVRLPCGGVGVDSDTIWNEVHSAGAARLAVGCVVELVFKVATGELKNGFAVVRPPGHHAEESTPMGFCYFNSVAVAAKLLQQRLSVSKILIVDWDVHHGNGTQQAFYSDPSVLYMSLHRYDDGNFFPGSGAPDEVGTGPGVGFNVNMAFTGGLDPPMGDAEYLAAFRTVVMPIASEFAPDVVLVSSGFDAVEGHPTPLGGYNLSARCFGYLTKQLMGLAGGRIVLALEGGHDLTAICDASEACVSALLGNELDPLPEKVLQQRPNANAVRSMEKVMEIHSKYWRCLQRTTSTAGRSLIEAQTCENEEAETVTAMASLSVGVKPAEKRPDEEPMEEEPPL

IC50: 4.46 µM
SMILES: C/C=C1\NC(=O)[C@H]2CSSCC/C=C/[C@H](CC(=O)N[C@H](C(C)C)C(=O)N2)OC(=O)[C@H](C(C)C)NC1=O [ROMIDEPSIN]
